Our source for the IC50 values is paper PMC9860845, “Synthesis, DFT Studies, Molecular Docking and Biological Activity Evaluation of Thiazole-Sulfonamide Derivatives as Potent Alzheimer’s Inhibitors” (Molecules, 2023).

Like-named read-outs stand apart in the source and are kept apart here.

The target in assay [1] is acetylcholinesterase (AChE) (Homo sapiens, UniProt P22303). In words: biochemical.
Assay [2] has as its target butyrylcholinesterase (BuChE) (Homo sapiens, UniProt P06276). As to the kind of experiment: biochemical.
Setting [3] is: Ellman method, pH 7.7, 37 °C, triplicate, ± SEM, read-out: AchE IC50.
The mark [4] stands for this setting: Ellman method, pH 7.7, 37 °C, triplicate, ± SEM, read-out: BuChE IC50.

acetylcholinesterase (AChE), sequence (P22303 32-614, species assumed): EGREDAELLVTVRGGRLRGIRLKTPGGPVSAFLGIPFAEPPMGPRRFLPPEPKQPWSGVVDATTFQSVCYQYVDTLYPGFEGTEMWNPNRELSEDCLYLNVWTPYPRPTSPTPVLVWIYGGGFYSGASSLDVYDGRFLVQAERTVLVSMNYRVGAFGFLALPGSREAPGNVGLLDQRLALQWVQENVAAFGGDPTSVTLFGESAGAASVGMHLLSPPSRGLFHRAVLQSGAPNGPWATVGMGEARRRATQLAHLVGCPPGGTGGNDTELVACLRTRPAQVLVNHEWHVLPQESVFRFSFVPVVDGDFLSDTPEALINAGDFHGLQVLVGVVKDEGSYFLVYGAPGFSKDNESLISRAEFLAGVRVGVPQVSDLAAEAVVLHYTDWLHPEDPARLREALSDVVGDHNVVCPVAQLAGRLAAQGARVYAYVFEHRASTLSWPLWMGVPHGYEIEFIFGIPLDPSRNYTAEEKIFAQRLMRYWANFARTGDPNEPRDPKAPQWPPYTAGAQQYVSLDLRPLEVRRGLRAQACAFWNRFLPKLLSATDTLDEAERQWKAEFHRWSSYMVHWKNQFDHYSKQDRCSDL
butyrylcholinesterase (BuChE), sequence (P06276 29-602): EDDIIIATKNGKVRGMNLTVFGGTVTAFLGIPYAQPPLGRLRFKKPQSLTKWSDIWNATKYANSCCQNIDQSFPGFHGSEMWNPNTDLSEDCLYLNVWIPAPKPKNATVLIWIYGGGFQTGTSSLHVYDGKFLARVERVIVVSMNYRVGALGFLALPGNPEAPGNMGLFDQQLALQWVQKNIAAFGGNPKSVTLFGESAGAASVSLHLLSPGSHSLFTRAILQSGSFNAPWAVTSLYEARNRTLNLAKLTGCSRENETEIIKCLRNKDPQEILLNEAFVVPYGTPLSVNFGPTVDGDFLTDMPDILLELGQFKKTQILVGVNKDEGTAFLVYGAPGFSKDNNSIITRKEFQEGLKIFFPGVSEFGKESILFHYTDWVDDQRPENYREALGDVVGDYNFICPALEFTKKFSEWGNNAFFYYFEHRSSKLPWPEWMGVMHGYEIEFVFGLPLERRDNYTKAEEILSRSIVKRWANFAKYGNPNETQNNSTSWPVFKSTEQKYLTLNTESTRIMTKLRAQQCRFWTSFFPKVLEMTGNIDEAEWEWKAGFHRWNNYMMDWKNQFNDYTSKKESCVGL

Turning to `Cc1ccc([N+](=O)[O-])cc1S(=O)(=O)NNc1nc(-c2ccc(Cl)cc2)cs1` [analog 11, N′-(4-(4-chlorophenyl)thiazol-2-yl)-2-methyl-5-nitrobenzenesulfonohydrazide], the values for the IC50 in assay [1] (setting [3]) and in assay [2] (setting [4]) were 3100 ± 100 nM and 4400 ± 100 nM, respectively.

`O=[N+]([O-])c1cccc(-c2csc(NNS(=O)(=O)c3cc(Cl)cc(Cl)c3O)n2)c1` [analog 1, 3,5-Dichlro-2-hydroxy-N′-(4-(3-nitrophenyl)thiazol-2-yl)benzenesulfonohydrazide]: the IC50 in assay [1] (setting [3]) is 100 ± 50 nM; in assay [2] (setting [4]), 200 ± 50 nM.

Regarding `O=[N+]([O-])c1ccc(S(=O)(=O)NNc2nc(-c3cccc([N+](=O)[O-])c3)cs2)cc1` [analog 20, 4-Nitro-N′-(4-(3-nitrophenyl)thiazol-2-yl)benzenesulfonohydrazide], the half-inhibitory concentration (IC50) was 3500 ± 100 nM in assay [1] and 5500 ± 100 nM in assay [2].

As to `O=[N+]([O-])c1ccc(S(=O)(=O)NNc2nc(-c3ccc(-c4ccccc4)cc3)cs2)cc1` [analog 21, N′-(4-([1,1′-biphenyl]-4-yl)thiazol-2-yl)-4-nitrobenzenesulfonohydrazide], the IC50 amounted to 3200 ± 100 nM in assay [1] (setting [3]) and 5400 ± 100 nM in assay [2] (setting [4]).

In the case of `O=[N+]([O-])c1cccc(-c2csc(NNS(=O)(=O)c3ccc(Cl)cc3)n2)c1` [analog 2, 4-Chloro-N′-(4-(3-nitrophenyl)thiazol-2-yl)benzenesulfonohydrazide], the IC50 stood at 1900 ± 100 nM in assay [1] (setting [3]) and 2700 ± 100 nM in assay [2] (setting [4]).

Regarding `O=S(=O)(NNc1nc(-c2ccc(-c3ccccc3)cc2)cs1)c1ccc(Cl)cc1` [analog 8, N′-(4-([1,1′-biphenyl]-4-yl)thiazol-2-yl)-4-chlorobenzenesulfonohydrazide], the IC50 in assay [1] (setting [3]) worked out at 7300 ± 100 nM; in assay [2] (setting [4]) it was 9200 ± 100 nM.

For the compound `Cc1ccc([N+](=O)[O-])cc1S(=O)(=O)NNc1nc(-c2ccc(-c3ccccc3)cc2)cs1` [analog 16, N′-(4-([1,1′-biphenyl]-4-yl)thiazol-2-yl)-2-methyl-5-nitrobenzenesulfonohydrazide], the IC50 in assay [1] (setting [3]) and in assay [2] (setting [4]) was 300 ± 50 nM each time.

As to `O=[N+]([O-])c1cccc(-c2csc(NNS(=O)(=O)c3cccc([N+](=O)[O-])c3)n2)c1` [analog 3, 3-Nitro-N′-(4-(3-nitrophenyl)thiazol-2-yl)benzenesulfonohydrazide], the IC50 in assay [1] worked out at 2900 ± 100 nM; in assay [2], 3800 ± 100 nM.

For `O=[N+]([O-])c1cccc(S(=O)(=O)NNc2nc(-c3ccc(Cl)cc3)cs2)c1` [analog 14, N′-(4-(4-chlorophenyl)thiazol-2-yl)-3-nitrobenzenesulfonohydrazide], the IC50 in assay [1] (setting [3]) turned out to be 1200 ± 100 nM; in assay [2] (setting [4]), 2700 ± 100 nM.

With `O=[N+]([O-])c1ccc(S(=O)(=O)NNc2nc(-c3ccccc3)cs2)cc1` [analog 6, 4-Nitro-N′-(4-phenylthiazol-2-yl)benzenesulfonohydrazide], the IC50 is 11400 ± 200 nM in assay [1] (setting [3]) and 14300 ± 300 nM in assay [2] (setting [4]).

Take `Cc1ccc([N+](=O)[O-])cc1S(=O)(=O)NNc1nc(-c2cccc([N+](=O)[O-])c2)cs1` [analog 4, 2-Methyl-5-nitro-N′-(4-(3-nitrophenyl)thiazol-2-yl)benzenesulfonohydrazide]: the figures for the IC50 in assay [1] and in assay [2] were 3200 ± 100 nM and 6100 ± 200 nM, respectively.

Regarding `O=S(=O)(NNc1nc(-c2ccc(Cl)cc2)cs1)c1ccc(Cl)cc1` [analog 7, 4-Chloro-N′-(4-(4-chlorophenyl)thiazol-2-yl)benzenesulfonohydrazide], the IC50 in assay [1] (setting [3]) came to 2600 ± 100 nM; in assay [2] (setting [4]) it was 4200 ± 100 nM.

Regarding `O=S(=O)(NNc1nc(-c2ccc(Cl)c(Cl)c2)cs1)c1ccc(Cl)cc1` [analog 15, 4-Chloro-N′-(4-(3,4-dichlorophenyl)thiazol-2-yl)benzenesulfonohydrazide], the IC50 in assay [1] (setting [3]) came out at 400 ± 100 nM; in assay [2] (setting [4]), 900 ± 100 nM.

`O=[N+]([O-])c1ccc([N+](=O)[O-])c(S(=O)(=O)NNc2nc(-c3ccc(-c4ccccc4)cc3)cs2)c1` [analog 19, N′-(4-([1,1′-biphenyl]-4-yl)thiazol-2-yl)-2,5-dinitrobenzenesulfonohydrazide]: the IC50 in assay [1] is 3100 ± 100 nM; in assay [2] it was 4300 ± 100 nM.

With `O=S(=O)(NNc1nc(-c2ccc(Cl)cc2)cs1)c1cc(Cl)cc(Cl)c1O` [analog 9, 3,5-Dichloro-N′-(4-(4-chlorophenyl)thiazol-2-yl)-2-hydroxybenzenesulfonohydrazide], the IC50 amounted to 400 ± 50 nM in assay [1] (setting [3]) and 700 ± 50 nM in assay [2] (setting [4]).

`O=[N+]([O-])c1cccc(S(=O)(=O)NNc2nc(-c3ccc(Cl)c(Cl)c3)cs2)c1` [analog 13, N′-(4-(3,4-dichlorophenyl)thiazol-2-yl)-3-nitrobenzenesulfonohydrazide]: the figures for the IC50 in assay [1] (setting [3]) and in assay [2] (setting [4]) were 300 ± 100 nM and 1400 ± 100 nM, respectively.

In the case of `Cc1ccc([N+](=O)[O-])cc1S(=O)(=O)NNc1nc(-c2ccc(Cl)c(Cl)c2)cs1` [analog 10, N′-(4-(3,4-dichlorophenyl)thiazol-2-yl)-2-methyl-5-nitrobenzenesulfonohydrazide], the IC50 was 200 ± 50 nM in assay [1] (setting [3]) and 600 ± 50 nM in assay [2] (setting [4]).

By IC50 is commonly meant the point on the concentration scale where inhibition reaches its midpoint.
